Experimental data taken from publication PMC4982898, “Molecular Design, Structural Analysis and Antifungal Activity of Derivatives of Peptide CGA-N46” (Interdisciplinary Sciences, Computational Life Sciences, 2016).

Tests used:
Format in all cases: cell-based
[1] = test system: Candida tropicalis (ATCC-20240); test: Antifungal MIC, broth microdilution with MTT; conditions: most sensitive yeast
Method: (§1) Candida glabrata (ATCC-90525), Candida parapsilosis (ATCC-20224), Candida krusei (ATCC-6258), Candida tropicalis (ATCC-20240), Candida albicans (ATCC-2048) were supplied by the Chinese Academy of Medical Sciences.
(§2) Minimum inhibitory concentrations (MICs) of CGA-N46 and its derivatives against fungi were measured according to a modified version of broth microdilution method of the Clinical and Laboratory Standards Institute (CLSI). Fungi cell’s viability was assessed based on the reduction of 3-[4,5-dimethylthiazolyl]-2,5-diphenyltetrazolium bromide (MTT) into formazan dye by active mitochondria. Briefly, peptides were serially twofold diluted in 20 mM PBS (pH 6.0) to a final concentration between 2 mg mL^−1 and 3.9 µg mL^−1. Subsequently, 100 μL samples was dispensed into the wells of a 96-U-shaped-well plate, and each was mixed with 100 μL of the 2 × inoculum suspension (1–5 × 10^4 CFU mL^−1) of a log-phase fungal culture in Sabouraud (SD) broth. Strains without treatment with peptides were used as negative control. The cultures were incubated at 30 °C without agitation for 16 h. 10 μL of MTT solution (5 mg mL^−1 MTT in PBS) was added to each well, and the plate was further incubated for 4 h. After rinsed, 100 μL of dimethylsulfoxide (DMSO) was added to dissolve the MTT formazan crystals. The inhibition of growth was determined by measuring the absorbance at 570 nm with a microplate reader. The relative cellular activity was calculated according to the following formula: cell survival inhibition rate (\% of control)= [(OD570of the negative sample-OD570of the treated sample) / OD570of the negative control]×100\%.
(§3) Each test was performed in triplicate, and the data were expressed as the mean ± SE.

[2] = test system: Human red blood cells (RBCs)
Method: Hemolytic activity was tested according to the method. Briefly, peptides were serially twofold diluted using PBS in 96-well plates to give a volume of 100 μL of the sample solution in each well, and the final concentration of peptides ranged between 2.0 mg mL^−1 and 3.9 μg mL^−1. Human red blood cells (RBCs) from a healthy volunteer were diluted to a concentration of 2 % in PBS. 100 μL of the RBC suspension was added to each well, and the reactions were incubated at 37 °C for 60 min, followed by 150 μL supernatant being transferred to a new 96-well plate (U-shaped well). The release of hemoglobin was determined by measuring the absorbance of the supernatant at 570 nm. RBCs in PBS and 0.1 % (v/v) Triton-X100 were used as the negative and positive controls, respectively. The percentage of hemolysis was calculated using the following formula: Hemolysis rate%=[(OD570of the treated sample-OD570of the negative control)/OD570of the positive control-OD570of the negative control]×100%. Each test was performed in triplicate, and the data were expressed as the mean ± SE.

[3] = test system: Candida albicans (ATCC-2048); test: Antifungal MIC, broth microdilution with MTT; conditions: most sensitive yeast
Method: as §1, §2, §3

[4] = test system: Candida krusei (ATCC-6258); test: Antifungal MIC, broth microdilution with MTT; conditions: most sensitive yeast
Method: as §1, §2, §3

[5] = test system: Candida glabrata (ATCC-90525); test: Antifungal MIC, broth microdilution with MTT; conditions: most sensitive yeast
Method: as §1, §2, §3

| Substance | MIC C. tropicalis [1] [µM] | 5 % Hemolysis [2] [mmol/L] | hemolytic activity (in words) [2] | MIC C. albicans [3] [µM] | MIC C. krusei [4] [µM] | MIC C. glabrata [5] [µM] |
| --- | --- | --- | --- | --- | --- | --- |
| H-ALQGAKERAHQQ-OH [CGA-N12, NH2–ALQGAKERAHQQ–COOH] | 75 | 0.39 | weak hemolytic activity at the concentration of MIC | – | – | – |
| H-ERILSILRHQNLLKE-OH [CGA-N15, NH2–ERILSILRHQNLLKE–COOH] | 73 | 0.031 | strong hemolytic activity | – | – | – |
| H-GAKERAHQ-OH [CGA-N8, NH2–GAKERAHQ–COOH] | – | 0.27 | MIC was near the concentration of its 5 % hemolysis | 240 | 240 | – |
| H-LQDLALQGAKERAHQQ-OH [CGA-N16, NH2–LQDLALQGAKERAHQQ–COOH] | – | 0.056 | strong hemolytic activity | – | – | 280 |
| H-PMPVSQECFETLRGHERILSILRHQNLLKELQDLALQGAKERAHQQ-OH [CGA-N46] | – | 0.74 | weak hemolytic activity at the concentration of MIC | – | – | – |
